Measured values taken from patent US11390609B2, “Rho-associated protein kinase inhibitor, pharmaceutical composition comprising same, and preparation method and use thereof” (BEIJING TIDE PHARMACEUTICAL CO., LTD., priority 2017, dated 2022).

Each molecule was assayed against ROCK1 (Homo sapiens (Human), UniProt Q13464) (assay: ROCK1 kinase IC50 assay (biological test method similar to the ROCK2 assay)).
ROCK1, sequence (Q13464 whole entry, species assumed): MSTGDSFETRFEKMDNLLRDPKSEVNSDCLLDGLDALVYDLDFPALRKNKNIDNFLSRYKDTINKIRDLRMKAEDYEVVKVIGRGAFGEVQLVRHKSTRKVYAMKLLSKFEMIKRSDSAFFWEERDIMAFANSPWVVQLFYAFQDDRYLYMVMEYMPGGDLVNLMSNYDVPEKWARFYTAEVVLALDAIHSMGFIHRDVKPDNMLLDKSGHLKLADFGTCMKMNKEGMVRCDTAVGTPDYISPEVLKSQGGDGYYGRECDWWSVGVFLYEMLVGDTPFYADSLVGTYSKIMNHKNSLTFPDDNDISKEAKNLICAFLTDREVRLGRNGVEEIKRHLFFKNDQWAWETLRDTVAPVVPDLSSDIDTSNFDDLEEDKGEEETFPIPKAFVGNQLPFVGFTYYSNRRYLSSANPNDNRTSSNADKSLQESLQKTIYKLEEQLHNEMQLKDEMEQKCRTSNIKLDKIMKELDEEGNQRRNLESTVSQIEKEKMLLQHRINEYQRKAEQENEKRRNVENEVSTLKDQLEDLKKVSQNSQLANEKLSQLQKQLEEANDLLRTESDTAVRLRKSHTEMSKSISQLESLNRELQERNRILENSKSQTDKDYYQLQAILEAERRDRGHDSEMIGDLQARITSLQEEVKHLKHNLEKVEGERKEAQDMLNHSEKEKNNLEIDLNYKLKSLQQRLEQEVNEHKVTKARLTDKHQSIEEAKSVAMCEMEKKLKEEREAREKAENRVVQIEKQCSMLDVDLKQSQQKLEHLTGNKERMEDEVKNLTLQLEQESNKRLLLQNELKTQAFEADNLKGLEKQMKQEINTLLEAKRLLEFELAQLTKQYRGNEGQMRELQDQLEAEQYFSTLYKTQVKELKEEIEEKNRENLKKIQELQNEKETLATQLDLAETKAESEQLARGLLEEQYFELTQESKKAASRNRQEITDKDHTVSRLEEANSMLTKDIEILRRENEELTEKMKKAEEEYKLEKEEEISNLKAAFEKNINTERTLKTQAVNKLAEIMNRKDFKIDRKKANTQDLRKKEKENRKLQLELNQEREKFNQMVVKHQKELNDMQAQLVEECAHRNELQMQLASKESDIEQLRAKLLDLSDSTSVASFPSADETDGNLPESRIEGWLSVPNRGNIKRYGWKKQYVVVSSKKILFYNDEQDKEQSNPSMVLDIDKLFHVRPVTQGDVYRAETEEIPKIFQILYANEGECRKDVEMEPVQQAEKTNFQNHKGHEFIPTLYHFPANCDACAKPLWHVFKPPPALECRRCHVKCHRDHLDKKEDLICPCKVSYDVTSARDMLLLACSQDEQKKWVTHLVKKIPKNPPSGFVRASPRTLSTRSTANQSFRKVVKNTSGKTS
Format: biochemical
Description: The kinase IC50 was determined by a commercialized CISBIO kinase detection kit, HTRF KinEASE-STK S2 kit (62ST2PEC). ROCK2 (01-119) employed in the reaction was purchased from Carna Biosciences.
Before the assay, the following working solutions as needed were formulated with corresponding reagents according to the instruction of the kinase detection kit: 1×kinase buffer, 5×STK-52 substrate working solution (1.5 μM) and 5×ATP working solution (1.5 μM), 5×ROCK2 kinase working solution, 4×Streptavidin-XL665 working solution, and 4×STK-Ab-Cryptate 2 detection solution. Then the assay was performed according to the following procedure.
A solution of a compound at a concentration of 10000 nM was prepared with the 1×kinase buffer containing 2.5% DMSO. Gradient dilution of the solution of the compound was performed with the kinase buffer containing DMSO, so as to obtain solutions of a test compound at 9 different concentrations. In addition to wells of test compounds, a positive well (containing all the reagents except the compound) and a negative well (containing all the reagents except the test compound and kinase) were set. Except for the control wells (positive and negative wells), a solution of a test compound (4 μL) was added to each of the reaction wells, and a solution of 2.5% DMSO was added to the control wells. Then the substrate ([…], 2 μL. 5×STK-S2 substrate working solution) was added to each of the reaction wells. The 5×ROCK2 kinase working solution (2 μL, containing 1.4 ng ROCK2 kinase) was added to each of the reaction wells except for the negative well, the volume of which was made up with the 1×kinase buffer (2 μL). The 5×ATP working solution (2 μL) was added to each of the reaction wells, and the mixtures were incubated at room temperature for 2 hours. After the kinase reaction was complete, the 4×Streptavidin-XL665 working solution was added to each of the reaction wells, the solutions were mixed, followed by immediate addition of the 4×STK-Ab-Cryptate 2 detection solution (5 μL), and the mixtures were incubated at room temperature for 1 hour. The fluorescence signal was read on ENVISION (Perkinelmer) (excitation wavelength: 320 nm, and emission wavelength: 665 nm and 615 nm). The inhibitory rate in each well was calculated based on the fluorescence intensity value: ER (Emission Ratio)=(fluorescence intensity at 665 nm/fluorescence intensity at 615 nm); inhibitory rate=(ERpositive−ERtest compound)/(ERpositive−ERnegative)*100%. Curves were plotted and fitted to obtain the median inhibitory concentration (IC50) of each teat compound with the PRISM 5.0 software.
According to a biological test method similar to the above, the IC50 values of the compounds on ROCK1 were tested.
`O=C(c1cc2ccc(-c3nccc(Nc4ccc(-c5cn[nH]c5)cc4)n3)cc2[nH]1)N1CC(C(F)F)C1` [TDI01435, (6-(4-((4-(1H-pyrazol-4-yl)phenyl)amino)pyrimidin-2-yl)-1H-indol-2-yl)(3-(difluoromethyl)azetidin-1-yl)methanone] showed an IC50 of 1.23 µM.
With `CN(C(=O)c1cc2ccc(-c3nccc(Nc4ccc(-c5cn[nH]c5)cc4)n3)cc2[nH]1)C1CCC1` [TDI01420, 6-(4-((4-(1H-pyrazol-4-yl)phenyl)amino)pyrimidin-2-yl)-N-cyclobutyl-N-methyl-1H-indole-2-carboxamide] the IC50 was 9.29 µM.
Work on `O=C(Nc1cccnc1)c1cc2ccc(-c3nccc(Nc4ccc(-c5cn[nH]c5)cc4)n3)cc2[nH]1` [TDI01397, 6-(4-((4-(1H-pyrazol-4-yl)phenyl)-amino)-pyrimidin-2-yl)-N-(pyridin-3-yl)-1H-indole-2-carboxamide] yielded an IC50 of 6 µM.
With `O=C(c1cc2ccc(-c3nccc(Nc4ccc(-c5cn[nH]c5)cc4)n3)cc2[nH]1)N1CC(C(F)(F)F)C1` [TDI01433, (6-(4-((4-(1H-pyrazol-4-yl)phenyl)amino)pyrimidin-2-yl)-1H-indol-2-yl)(3-(trifluoromethyl)azetidin-1-yl)methanone] the IC50 was 1.97 µM.
With `CN(C)c1cnccc1NC(=O)c1cc2ccc(-c3nccc(Nc4ccc5[nH]ncc5c4)n3)cc2[nH]1` [TDI01289, 6-(4-((1H-indazol-5-yl)amino)-pyrimidin-2-yl)-N-(3-(dimethylamino)-pyridin-4-yl)-1H-indole-2-carboxamide] the IC50 was 0.98 µM.
`CC(C)NC(=O)c1cc2ccc(-c3nc(Nc4ccc5[nH]ncc5c4)c4occc4n3)cc2s1` [TDI01135, 6-(4-((1H-indazol-5-yl)amino)furo[3,2-d]pyrimidin-2-yl)-N-isopropylben-zo[b]thiophene-2-carboxamide] gave an IC50 of 3 µM.
Work on `CN(CCC#N)C(=O)c1cc2ccc(-c3nccc(Nc4ccc(-c5cn[nH]c5)cc4)n3)cc2[nH]1` [TDI01442, 6-(4-((4-(1H-pyrazol-4-yl)phenyl)amino)pyrimidin-2-yl)-N-(2-cyanoethyl)-N-methyl-1H-indole-2-carboxamide] yielded an IC50 greater than 10 µM.
`CN(C(=O)c1cc2ccc(-c3nccc(Nc4ccc(-c5cn[nH]c5)cc4)n3)cc2[nH]1)C1CCNC1` (centres unmarked) [TDI01345, 6-(4-((4-(1H-pyrazol-4-yl)phenyl)-amino)-pyrimidin-2-yl)-N-methyl-N-(pyrrolidin-3-yl)-1H-indole-2-carboxamide] showed an IC50 of 3.91 µM.
For `O=C(c1cc2ccc(-c3nccc(Nc4ccc(-c5cn[nH]c5)cc4)n3)cc2[nH]1)N1CCOCC1` [TDI01331, (6-(4-((4-(1H-pyrazol-4-yl)phenyl)-amino)-pyrimidin-2-yl)-1H-indol-2-yl)-(morpholino)-methanone], the IC50 was greater than 10 µM.
For `O=C(NC1CCOC1)c1cc2ccc(-c3nccc(Nc4ccc(-c5cn[nH]c5)cc4)n3)cc2[nH]1` (centres unmarked) [TDI01337, 6-(4-((4-(1H-pyrazol-4-yl)phenyl)-amino)-pyrimidin-2-yl)-N-(tetrahydro-furan-3-yl)-1H-indole-2-carboxamide], the IC50 was 2.76 µM.
`CNC(=O)c1cc2ccc(-c3nc(Nc4ccc(-c5cn[nH]c5)cc4)c4sccc4n3)cc2[nH]1` [TDI01379, 6-(4-((4-(1H-pyrazol-4-yl)phenyl)-amino)thieno-[3.2-d]-pyrimidin-2-yl)-N-methyl-1H-indole-2-carboxamide] was tested, and the IC50 was greater than 10 µM.
Molecule `O=C(N1Cc2ccc(-c3nccc(Nc4ccc(-c5cn[nH]c5)cc4)n3)cc2C1)N1CC(F)(F)C1` [TDI01467] has an IC50 greater than 10 µM.
`O=C(NC1CC1)c1cc2ccc(-c3nccc(Nc4ccc5[nH]ncc5c4)n3)cc2s1` [TDI01111, 6-(4-((1H-indazol-5-yl)amino)pyrimidin-2-yl)-N-cyclopropylben-zo[b]thiophene-2-carboxamide] was tested, and the IC50 was 1.41 µM.
`O=C(Nc1ccc2[nH]ncc2c1)c1cc2ccc(-c3nccc(Nc4ccc5[nH]ncc5c4)n3)cc2[nH]1` [TDI01182, 6-(4-((1H-indazol-5-yl)amino)-pyrimidin-2-yl)-N-(1H-indazol-5-yl)-1H-indole-2-carboxamide] was tested, and the IC50 was 0.712 µM.
Molecule `O=C(Nc1ccncc1I)c1cc2ccc(-c3nccc(Nc4ccc(-c5cn[nH]c5)cc4)n3)cc2[nH]1` [TDI01829C, 6-(4-((4-(1H-pyrazol-4-yl)phenyl)-amino)-pyrimidin-2-yl)-N-(3-iodopyridin-4-yl)-1H-indole-2-carboxamide] has an IC50 greater than 10 µM.
For `Cn1c(C(=O)Nc2ccnnc2)cc2ccc(-c3nccc(Nc4ccc5[nH]ncc5c4)n3)cc21` [TDI01201, 6-(4-((1H-indazol-5-yl)amino)-pyrimidin-2-yl)-1-methyl-N-(pyridazin-4-yl)-1H-indole-2-carboxamide], the IC50 was 6.92 µM.
With `O=C(c1cc2ccc(-c3nccc(Nc4ccc(-c5cn[nH]c5)cc4)n3)cc2[nH]1)N1CCOC[C@H]1CO` [TDI01853, (R)-(6-(4-((4-(1H-pyrazol-4-yl)phenyl)-amino)-pyrimidin-2-yl)-1H-indol-2-yl)(3-(hydroxy-methyl)-morpholino)-methanone] the IC50 was 2.83 µM.
Work on `O=C(Nc1ccncc1)c1cc2ccc(-c3nccc(Nc4ccc(-c5cn[nH]c5)cc4)n3)cc2[nH]1` [TDI01363, 6-(4-((4-(1H-pyrazol-4-yl)phenyl)-amino)-pyrimidin-2-yl)-N-(pyridin-4-yl)-1H-indole-2-carboxamide] yielded an IC50 greater than 10 µM.
In the case of `O=C(Nc1ccncc1Cl)c1cc2ccc(-c3nccc(Nc4ccc5[nH]ncc5c4)n3)cc2[nH]1` [TDI01290, 6-(4-((1H-indazol-5-yl)amino)-pyrimidin-2-yl)-N-(3-chloropyridin-4-yl)-1H-indole-2-carboxamide], the IC50 is reported as greater than 10 µM.
For `CN1CCN(C(=O)c2cc3ccc(-c4nccc(Nc5ccc(-c6cn[nH]c6)cc5)n4)cc3[nH]2)CC1` [TDI01343, (6-4(-((4-(1H-pyrazol-4-yl)phenyl)-amino)-pyrimidin-2-yl)-1H-indol-2-yl)(4-methyl-piperazin-1-yl)methanone], the IC50 was 7.11 µM.
`O=C(Nc1ccncc1Cl)c1cc2ccc(-c3nccc(Nc4ccc(-c5cn[nH]c5)cc4)n3)cc2[nH]1` [TDI01354, 6-(4-((4-(1H-pyrazol-4-yl)phenyl)-amino)-pyrimidin-2-yl)-N-(3-chloropyridin-4-yl)-1H-indole-2-caiboxamide] showed an IC50 greater than 10 µM.
Work on `CC(C)NC(=O)c1cc2ccc(-c3nc(Nc4ccc5[nH]ncc5c4)c4sccc4n3)cc2s1` [TDI01136, 6-(4-((1H-indazol-5-yl)amino)thieno[3,2-d]pyrimidin-2-yl)-N-isopropylben-zo[b]thiophene-2-carboxamide] yielded an IC50 of 0.827 µM.
In the case of `CN(C(=O)c1cc2ccc(-c3nccc(Nc4ccc(-c5cn[nH]c5)cc4)n3)cc2[nH]1)C1CC(O)C1` (centres unmarked) [TDI01418, 6-(4-((4-(1H-pyrazol-4-yl)phenyl)amino)pyrimidin-2-yl)-N-(3-hydroxycyclobutyl)-N-methyl-1H-indole-2-carboxamide], the IC50 is reported as 5.38 µM.
Molecule `O=C(NC1CC1)c1cc2ccc(-c3nccc(Nc4ccc(-c5cn[nH]c5)cc4)n3)cc2[nH]1` [TDI01324, 6-(4-((4-(1H-pyrazol-4-yl)phenyl)-amino)-pyrimidin-2-yl)-N-cyclopropyl-1H-indole-2-carboxamide] has an IC50 of 1.74 µM.
Work on `CCN(CCO)C(=O)c1cc2ccc(-c3nccc(Nc4ccc(-c5cn[nH]c5)cc4)n3)cc2[nH]1` [TDI01415, 6-(4-((4-(1H-pyrazol-4-yl)phenyl)-amino)-pyrimidin-2-yl)-N-ethyl-N-(2-hydroxyethyl)-1H-indole-2-carboxamide] yielded an IC50 of 3.71 µM.
`O=C(Nc1ccnnc1Cl)c1cc2ccc(-c3nccc(Nc4ccc5[nH]ncc5c4)n3)cc2[nH]1` [TDI01180] gave an IC50 of 2.78 µM.
